Consider one molecule from patent publication US10391108B2 (BioPharmX, Inc., priority 2015, dated 2019).

For the assay, the system named is P. acnes ATCC 6919. Briefly: Minimum Inhibitory Concentration (MIC), broth microdilution. It counts as cell-based. Particulars: 37° C., 2 days, anaerobic, tested 0.0078 to 16 μg/mL. The procedure: The antimicrobial activity of minocycline was assessed by measuring the Minimum Inhibitory Concentration (MIC). MIC was also assessed for several other materials and combinations and relative MIC values were calculated as multiples of the minocycline MIC value. […] Test material was dissolved in water, diluted by two-fold serial titrations for a total of 11 concentrations. A 96-well plate was prepared by adding 196 μL of broth medium seeded with a strain of P. acnes ATCC 6919 bacteria. A 4 μL aliquot of a test substance dilution was added to each well to bring the total volume in each well to 200 μL. The test substance concentrations tested ranged from 0.0078 to 16 μg/mL. Plates were incubated at 37° C. for 2 days in anaerobic conditions. 96-well plates were read by a TECAN […] F50 ELISA microplate reader (Männedorf, Switzerland) in absorbance mode with a wavelength of 620 nm. Each well was evaluated for whether growth occurred or was inhibited. The lowest concentration for which growth was inhibited was recorded as the MIC. Each test substance was evaluated in duplicate.
On the technique in general: Broth dilution looks for growth in wells or tubes with falling amounts of substance.

For `[Cl-].[Cl-].[Mg+2]` [Magnesium chloride, magnesium chloride], the MIC value result was “did not inhibit growth at any of the concentrations tested”.
